Experimental data as given in article PMC10141607, “Powerful Avidity with a Limited Valency for Virus-Attachment Blockers on DC-SIGN: Combining Chelation and Statistical Rebinding with Structural Plasticity of the Receptor” (ACS Central Science, 2023).
“And” between values parts separate entries of the source, which are not always exact repeats. Identical values can stand only once.

T1: DC-SIGN ECD oriented surface (Homo sapiens, UniProt Q9NNX6)
T1 construct: made in house
T1 sequence (Q9NNX6 59-404 limits assumed): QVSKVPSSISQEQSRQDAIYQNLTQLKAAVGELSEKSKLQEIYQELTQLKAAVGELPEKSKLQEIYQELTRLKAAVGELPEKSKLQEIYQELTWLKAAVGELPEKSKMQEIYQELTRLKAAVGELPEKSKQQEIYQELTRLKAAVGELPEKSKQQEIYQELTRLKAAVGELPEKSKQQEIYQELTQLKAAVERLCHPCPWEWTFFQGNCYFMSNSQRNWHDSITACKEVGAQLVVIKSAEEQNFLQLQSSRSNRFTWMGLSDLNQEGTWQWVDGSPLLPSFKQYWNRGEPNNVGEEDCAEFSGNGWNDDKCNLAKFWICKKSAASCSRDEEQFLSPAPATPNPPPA

T2: DC-SIGN ECD tetramer (Homo sapiens, UniProt Q9NNX6)
T2 sequence (Q9NNX6 59-404 limits assumed): T1 sequence (Q9NNX6 59-404 limits assumed)

T3: DC-SIGN extracellular domain (human), Q9NNX6
T3 chain: T1 sequence (Q9NNX6 59-404 limits assumed)

B1: DC-SIGN extracellular domain, Q9NNX6 59-404 (domain or fragment)
chain: T1 sequence (Q9NNX6 59-404 limits assumed)

How the values were obtained:
[1] = target: T1, DC-SIGN ECD oriented surface; type: binding; conditions: for Kd: SPR direct interaction on DC-SIGN ECD oriented surface, 25 mM Tris pH 8, 150 mM NaCl, 4 mM CaCl2, 4% DMSO, read-out: KD app; for ß factor (valency-corrected enhancement factor): from SPR KDapp, compound 3.1 as monovalent reference
DC-SIGN ECD = tested on: DC-SIGN ECD; set-up: method as in PMID 25648900; conditions: SPR inhibition study (competition experiment); cited from earlier work
DC-SIGN ECD tetramer = target: T2, DC-SIGN ECD tetramer; experiment: Isothermal titration calorimetry (ITC); type: binding; conditions: 25°C
Procedure: Thermodynamic parameters of multivalent binding as measured by isothermal titration calorimetry (ITC) were analyzed for compounds 3.2 and 3.6. Usually, ITC should provide, among other parameters, a “real” KD value; however, here we prefer to refer to a KDapp. Indeed, in these ITC experiments, we are not evaluating an affinity (a 1:1 unitary interaction, defined by KD) but rather an avidity phenomenon resulting from cumulative unitary bonds (each of whose individual contributions to the overall avidity cannot be deconvoluted). In addition, this avidity results from several multivalent modalities, a population of binding modes. Thus, the use of KDapp, instead of KD, emphasizes that the values determined here are the result of a complex phenomenon. The ITC binding analysis (Figure 3 and Table 2) is fully in agreement with the other biophysical techniques (see Table 2 for SPR and Figure 2C for FP of 3.6) with KDapp values equal to 58 ± 1 nM and 1.1 ± 0.2 μM for compounds 3.6 and 3.2, respectively. […] Increasing the local concentration close to the site is a major source of avidity generation. The ΔH difference is offset by a more unfavorable entropy for 3.6, which probably originates from the loss of degrees of freedom of construct extremities, six versus two, upon binding. Hydrophobic effect may also contribute, since the hydrophobic rod is shielded better from the solvent by the six units of ligand 1 in 3.6([35]) and exposing the hydrophobic parts and ordering the solvent around them is entropically costly. Combining the enthalpy and entropy effects, the ΔG for the hexavalent ligand improves by 10 kJ/mol. It is interesting to note that a stoichiometry of 1 for the complex with 3.6 is observed, supporting again the chelation mode. On the contrary, a stoichiometry n = 1.5 is observed for 3.2, with a KDapp in the μM range, which is compatible with a mixed chelation and clustering binding mode. […]
This graph is supplementary evidence of the multivalent binding, here chelate binding mode for 3.2, that occur over a DC-SIGN oriented surface.
3. Isothermal titration calorimetric analysis
ITC experiments were performed at 25°C using TA Instrument Nano Isothermal Titration Calorimeter Low volume (Nano ITC LV). Compound 3.6, 3.2 and DC-SIGN ECD were prepared in 25 mM Tris pH 8; 150 mM NaCl, 4 mM CaCl2, 4 % DMSO. Compounds (30 µM of 3.6 or 375 µM of 3.2) were stepwise injected (1.03 µL) to 190 µL of DC-SIGN ECD tetramer (respectively, 30 µM or 48.75 µM) in the cell. The blank titrations (compounds to buffer) were done for subtraction of dilution heat from the integrated data. […]
The free energy changes (∆G) and entropy (∆S) were calculated using equation (2): […]

[2] = target: T3, DC-SIGN extracellular domain (human), …; experiment: AUC; sedimentation velocity; DC-SIGN tetramer 4 uM alone (same peak with 5 nM to 500 nM compound 3.6); monomers to tetramer; conditions: remark: other sources report otherwise

| Molecule | Kd [1] | ß factor (valency-corrected enhancement factor) [1] | IC50 (DC-SIGN ECD) [nM] | further results |
| --- | --- | --- | --- | --- |
| O=C(NCc1ccc(CO)cc1)C1CC(OCCn2cc(COCC(COCCOCCn3cc(-c4cc(OCCOCCO)c(-c5cn(CCOCCOCC(COCc6cn(CCOC7CC(C(=O)NCc8ccc(CO)cc8)C(C(=O)NCc8ccc(CO)cc8)CC7OC7OC(CO)C(O)C(O)C7O)nn6)(COCc6cn(CCOC7CC(C(=O)NCc8ccc(CO)cc8)C(C(=O)NCc8ccc(CO)cc8)CC7OC7OC(CO)C(O)C(O)C7O)nn6)COCc6cn(CCOC7CC(C(=O)NCc8ccc(CO)cc8)C(C(=O)NCc8ccc(CO)cc8)CC7OC7OC(CO)C(O)C(O)C7O)nn6)nn5)cc4OCCOCCO)nn3)(COCc3cn(CCOC4CC(C(=O)NCc5ccc(CO)cc5)C(C(=O)NCc5ccc(CO)cc5)CC4OC4OC(CO)C(O)C(O)C4O)nn3)COCc3cn(CCOC4CC(C(=O)NCc5ccc(CO)cc5)C(C(=O)NCc5ccc(CO)cc5)CC4OC4OC(CO)C(O)C(O)C4O)nn3)nn2)C(OC2OC(CO)C(O)C(O)C2O)CC1C(=O)NCc1ccc(CO)cc1 (stereo not shown) [Compound 1.6] | 170 nM and 172 nM | 38 |  |  |
| [N-]=[N+]=NCCOC1CC(C(=O)NCc2ccc(CO)cc2)C(C(=O)NCc2ccc(CO)cc2)CC1OC1OC(CO)C(O)C(O)C1O (stereo not shown) [Compound 1] |  |  | 270000 |  |
| O=C(NCc1ccc(CO)cc1)C1CC(OCCn2cc(COCC(COCCOCCn3cc(-c4cc(OCCOCCO)c(C#Cc5cc(OCCOCCO)c(-c6cn(CCOCCOCC(COCc7cn(CCOC8CC(C(=O)NCc9ccc(CO)cc9)C(C(=O)NCc9ccc(CO)cc9)CC8OC8OC(CO)C(O)C(O)C8O)nn7)(COCc7cn(CCOC8CC(C(=O)NCc9ccc(CO)cc9)C(C(=O)NCc9ccc(CO)cc9)CC8OC8OC(CO)C(O)C(O)C8O)nn7)COCc7cn(CCOC8CC(C(=O)NCc9ccc(CO)cc9)C(C(=O)NCc9ccc(CO)cc9)CC8OC8OC(CO)C(O)C(O)C8O)nn7)nn6)cc5OCCOCCO)cc4OCCOCCO)nn3)(COCc3cn(CCOC4CC(C(=O)NCc5ccc(CO)cc5)C(C(=O)NCc5ccc(CO)cc5)CC4OC4OC(CO)C(O)C(O)C4O)nn3)COCc3cn(CCOC4CC(C(=O)NCc5ccc(CO)cc5)C(C(=O)NCc5ccc(CO)cc5)CC4OC4OC(CO)C(O)C(O)C4O)nn3)nn2)C(OC2OC(CO)C(O)C(O)C2O)CC1C(=O)NCc1ccc(CO)cc1 (stereo not shown) [Compound 2.6] | 140 ± 8 nM | 47 |  |  |
| O=C(NCc1ccc(CO)cc1)C1CC(OCCn2cc(-c3cc(OCCOCCO)c(C#Cc4cc(OCCOCCO)c(C#Cc5cc(OCCOCCO)c(-c6cn(CCOC7CC(C(=O)NCc8ccc(CO)cc8)C(C(=O)NCc8ccc(CO)cc8)CC7OC7OC(CO)C(O)C(O)C7O)nn6)cc5OCCOCCO)cc4OCCOCCO)cc3OCCOCCO)nn2)C(OC2OC(CO)C(O)C(O)C2O)CC1C(=O)NCc1ccc(CO)cc1 (stereo not shown) [Compound 3.2] | 2400 nM and 2440 nM | 8 | 8000 | n (stoichiometry) (DC-SIGN ECD tetramer): 1.5 and 1.56 ± 0.04; ΔH (DC-SIGN ECD tetramer): –85.27 ± 4.48 kJ/mol; TΔS (DC-SIGN ECD tetramer; calculated): –54.4 kJ/mol; Kd (DC-SIGN ECD tetramer; one-site binding model, read-out: KDapp): 1100 ± 200 nM |
| B1 |  |  |  | stoichiometry N [2]: 4 |
